Earlier results in patent US7718667B2, “Fused aminopiperidines as dipeptidyl peptidase-IV inhibitors for the treatment or prevention of diabetes” (Merck Sharp & Dohme Corp., priority 2004, dated 2010).

Legend:
rats = settings: survival doubled from day 7
mouse = settings: cyclophosphamide-induced neutropenia
DPP-IV = biological target: T1, DPP-IV (Homo sapiens, UniProt P27487)
T1 construct: GRF is rapidly degraded in plasma to GRF[3-44]; from tissue
T1 sequence (P27487 39-766 limits assumed, species assumed): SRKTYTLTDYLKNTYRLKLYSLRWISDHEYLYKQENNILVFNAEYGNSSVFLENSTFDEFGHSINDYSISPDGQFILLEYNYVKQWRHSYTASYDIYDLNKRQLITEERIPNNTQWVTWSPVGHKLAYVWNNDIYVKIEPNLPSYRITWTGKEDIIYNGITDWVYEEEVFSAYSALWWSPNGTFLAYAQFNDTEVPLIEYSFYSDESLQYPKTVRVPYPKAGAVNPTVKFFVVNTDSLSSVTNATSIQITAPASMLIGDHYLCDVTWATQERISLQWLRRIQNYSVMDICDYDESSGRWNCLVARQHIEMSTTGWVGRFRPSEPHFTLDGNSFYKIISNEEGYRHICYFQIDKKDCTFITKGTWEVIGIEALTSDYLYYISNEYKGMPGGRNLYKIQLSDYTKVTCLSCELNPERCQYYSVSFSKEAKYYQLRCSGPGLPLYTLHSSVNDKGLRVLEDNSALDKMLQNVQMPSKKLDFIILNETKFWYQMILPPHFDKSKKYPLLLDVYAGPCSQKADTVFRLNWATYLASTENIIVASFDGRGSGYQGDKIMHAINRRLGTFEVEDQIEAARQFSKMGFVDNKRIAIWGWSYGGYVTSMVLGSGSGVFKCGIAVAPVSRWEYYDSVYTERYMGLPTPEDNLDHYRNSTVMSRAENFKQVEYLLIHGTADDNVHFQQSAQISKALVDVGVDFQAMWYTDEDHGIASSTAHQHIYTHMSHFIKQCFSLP

In the case of CC(C)N1CCC(c2ccccc2)(c2ccccc2)CC1 [Prodipine, Pro-Pro-diphenyl-phosphonate], the cardiac allograft survival (rats) is given as 14 day.
In the case of CC(C)[C@H](N)C(=O)N1CCC[C@H]1B(O)O [Val-Boro-Pro], the hematopoiesis (mouse) is listed as “stimulated hematopoiesis”.
In the case of CC[C@H](C)[C@H](N)C(=O)N1CCC[C@H]1C(=O)N[C@H](C(=O)O)[C@@H](C)CC [diprotin A], the “degradation of GRF in plasma to GRF[3-44]” value (DPP-IV) is given as “prevented”.
